Measured values as given in ChEMBL document CHEMBL1201862, “PubChem BioAssay data set” (2004).
Calls of active or inactive are those of the source. For most assays here, no stated cut-off is given here; in the data, actives have a measured EC50 and inactives only a lower limit.

Columns and labels:
[1] = target: T1, Calpain-2 catalytic subunit (Sus scrofa, UniProt P43367); assay: m-calpain protease blockers, concentration series – biochemical, fluorogenic peptide substrate, dose response (AID 1420); format: functional
T1 sequence (P43367 whole entry): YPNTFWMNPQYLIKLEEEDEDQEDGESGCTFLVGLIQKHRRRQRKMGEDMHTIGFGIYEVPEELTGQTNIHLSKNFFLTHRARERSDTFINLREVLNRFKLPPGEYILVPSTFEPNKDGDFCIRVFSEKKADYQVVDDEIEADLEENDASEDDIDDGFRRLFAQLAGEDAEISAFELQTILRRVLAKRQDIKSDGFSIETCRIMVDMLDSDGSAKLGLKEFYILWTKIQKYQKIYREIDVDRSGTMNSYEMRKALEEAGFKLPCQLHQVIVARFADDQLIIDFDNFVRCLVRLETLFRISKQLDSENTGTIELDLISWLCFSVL

[2] = target: T2, Heat shock factor protein 1 (Mus musculus, UniProt P38532); assay: decrease of HSF1-responsive luciferase luminescence – cell-based, NIH3T3, dose retest, confirmation (AID 2382); format: functional;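 further: NIH3T3 fibroblasts with HSF1-driven luciferase reporter stressed by proteasome inhibitor MG132; luminescence from HSF1-driven luciferase expression after 8 hours of MG132 stress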
T2 sequence (P38532 whole entry): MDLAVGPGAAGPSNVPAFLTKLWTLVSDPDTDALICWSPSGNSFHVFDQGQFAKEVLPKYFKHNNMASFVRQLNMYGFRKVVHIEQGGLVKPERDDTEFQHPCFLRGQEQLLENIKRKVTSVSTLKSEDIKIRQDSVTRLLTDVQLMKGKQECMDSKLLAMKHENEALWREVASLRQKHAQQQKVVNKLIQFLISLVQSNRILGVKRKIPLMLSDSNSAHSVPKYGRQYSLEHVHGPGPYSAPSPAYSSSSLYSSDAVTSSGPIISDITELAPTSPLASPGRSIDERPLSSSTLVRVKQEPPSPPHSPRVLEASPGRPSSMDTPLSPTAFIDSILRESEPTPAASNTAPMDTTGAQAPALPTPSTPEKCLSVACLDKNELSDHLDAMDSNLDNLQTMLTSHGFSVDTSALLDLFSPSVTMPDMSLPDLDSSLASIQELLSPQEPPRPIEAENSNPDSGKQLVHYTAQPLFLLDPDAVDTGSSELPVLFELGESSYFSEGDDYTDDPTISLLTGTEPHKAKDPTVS

Large T antigen = Large T antigen (Simian virus 40, UniProt P03070); format: functional, Betapolyomavirus macacae;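 further: Confirmatory-stage PubChem screen for compounds that inhibit SV40 T antigen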
[3] = Trypanosoma cruzi growth suppression in host cells – NIH3T3 host cells, beta-gal luminescence, confirmation (AID 2044); format: functional, cell-based;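 further: intracellular parasites grown in NIH/3T3 mouse fibroblasts as host cells; luminescent beta-galactosidase reporter signal from transgenic T. cruzi replicating inside host cells; inhibitors lower the luminescence signal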
[4] = NIH3T3 cell viability loss – ATP luminescence, mouse fibroblasts, counter-screen, dose response (AID 2010); format: functional, cell-based;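 further: cells exposed to compound for about 90 hours before reading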
[5] = target: T3, Ubiquitin-conjugating enzyme E2 N (Homo sapiens, UniProt P61088); format: functional;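 further: Dose-response confirmation in a TR-FRET assay detecting UBC13-driven polyubiquitin chain formation, inhibition measured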
T3 sequence (P61088 whole entry): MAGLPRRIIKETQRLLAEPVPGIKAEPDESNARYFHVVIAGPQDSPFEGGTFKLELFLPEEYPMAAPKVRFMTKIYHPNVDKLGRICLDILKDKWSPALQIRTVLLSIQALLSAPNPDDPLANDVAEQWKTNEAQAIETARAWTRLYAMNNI

H9c2 = assay: cells; format: functional, cell-based; details: Rattus norvegicus, H9c2, Myocardium;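 further: confirmatory concentration-response retest of ultra-high-throughput screening hits for modulation of myocardial damage; cell death induced by hydrogen peroxide oxidative stress; compound pretreatment for 60 min then peroxide exposure for 2 h; potency is for protecting the cells against peroxide damage rather than for killing them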
cells = format: functional
[6] = Luminescence Cell-Based Dose Response HTS to Identify Activators of Luciferase Translation or Activity in H4 […] Cells. [Related pubchem assays: 1829 (Project Summary), 1814 (Primary HTS)]; format: functional
H4 = assay: Luminescence Cell-Based Dose Response HTS to Identify Activators of 5'UTR Stem-Loop Driven Prion Protein mRNA Translation in H4 Neuroglioblastoma Cells. [Related pubchem assays: 1829 (Project Summary), 1814 (Primary HTS)]; format: functional; details: Homo sapiens
[7] = target: T4, Corticotropin-releasing factor receptor 2/Corticotropin-releasing factor-binding protein (Homo sapiens, UniProt P24387+Q13324); assay: activators of CRF receptor 2 with binding protein – uHTS hits, confirmation (AID 602473); format: functional; details: read-out: EC50_Mean
T4 sequence (Q13324 whole entry): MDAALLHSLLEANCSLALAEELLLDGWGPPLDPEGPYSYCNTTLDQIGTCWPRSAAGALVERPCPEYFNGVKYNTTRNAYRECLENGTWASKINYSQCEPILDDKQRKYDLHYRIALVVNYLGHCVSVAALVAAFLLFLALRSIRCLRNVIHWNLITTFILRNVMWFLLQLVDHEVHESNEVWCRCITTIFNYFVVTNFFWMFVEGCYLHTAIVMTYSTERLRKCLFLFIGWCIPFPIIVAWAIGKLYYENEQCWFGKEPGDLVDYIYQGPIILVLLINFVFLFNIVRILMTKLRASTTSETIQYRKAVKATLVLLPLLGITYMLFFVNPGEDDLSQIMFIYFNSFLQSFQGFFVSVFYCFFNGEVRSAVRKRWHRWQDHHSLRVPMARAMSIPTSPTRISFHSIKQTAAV
T4 sequence (P24387 whole entry): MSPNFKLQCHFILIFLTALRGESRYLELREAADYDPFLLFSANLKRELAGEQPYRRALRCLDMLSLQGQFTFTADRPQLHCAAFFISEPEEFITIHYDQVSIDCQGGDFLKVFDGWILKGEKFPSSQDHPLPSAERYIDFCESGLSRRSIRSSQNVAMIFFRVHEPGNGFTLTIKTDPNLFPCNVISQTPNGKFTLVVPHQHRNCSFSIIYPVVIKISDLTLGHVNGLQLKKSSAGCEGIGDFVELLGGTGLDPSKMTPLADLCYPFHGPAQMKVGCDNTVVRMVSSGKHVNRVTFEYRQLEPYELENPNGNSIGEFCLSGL

BJ [8] = assay: BJ-TERT-LT-ST fibroblast viability loss – cell-based, RAS-independent, luminescence, dose response (AID 1935); format: functional; details: Homo sapiens;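 further: BJ fibroblasts immortalized with TERT plus LT and ST oncogenes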
BJ [9] = assay: cells; format: functional, cell-based; details: Homo sapiens
[10] = DRD fibroblast viability loss – cell-based, non-viral oncogenic, luminescence, dose response (AID 1934); format: functional; details: Homo sapiens
BJ [11] = assay: BJ-TERT fibroblast viability loss – cell-based, RAS-independent, luminescence, dose response (AID 1933); format: functional; details: Homo sapiens
[12] = target: T5, RNA-binding protein pos-1 (Caenorhabditis elegans, UniProt G5EF15); assay: disruptors of C. elegans POS-1 RNA interaction – biochemical, fluorescence polarization, dose response (AID 1964);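 further: purified POS-1 fused to maltose binding protein made in E. coli; potency of compounds blocking POS-1 binding to fluorescent RNA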
T5 sequence (G5EF15 whole entry): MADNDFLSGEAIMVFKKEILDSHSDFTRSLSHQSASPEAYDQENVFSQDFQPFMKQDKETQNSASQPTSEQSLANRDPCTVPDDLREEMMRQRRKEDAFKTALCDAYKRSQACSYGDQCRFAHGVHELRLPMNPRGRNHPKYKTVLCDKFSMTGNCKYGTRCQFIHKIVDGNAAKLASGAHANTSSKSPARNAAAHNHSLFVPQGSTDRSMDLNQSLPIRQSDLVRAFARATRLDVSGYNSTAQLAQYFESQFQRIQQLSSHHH

[13] = target: T6, Zinc finger protein mex-5 (Caenorhabditis elegans, UniProt Q9XUB2); assay: potency of MEX-5 RNA-binding blockers – biochemical, C. elegans, fluorescence polarization, dose response (AID 1960)
T6 sequence (Q9XUB2 whole entry): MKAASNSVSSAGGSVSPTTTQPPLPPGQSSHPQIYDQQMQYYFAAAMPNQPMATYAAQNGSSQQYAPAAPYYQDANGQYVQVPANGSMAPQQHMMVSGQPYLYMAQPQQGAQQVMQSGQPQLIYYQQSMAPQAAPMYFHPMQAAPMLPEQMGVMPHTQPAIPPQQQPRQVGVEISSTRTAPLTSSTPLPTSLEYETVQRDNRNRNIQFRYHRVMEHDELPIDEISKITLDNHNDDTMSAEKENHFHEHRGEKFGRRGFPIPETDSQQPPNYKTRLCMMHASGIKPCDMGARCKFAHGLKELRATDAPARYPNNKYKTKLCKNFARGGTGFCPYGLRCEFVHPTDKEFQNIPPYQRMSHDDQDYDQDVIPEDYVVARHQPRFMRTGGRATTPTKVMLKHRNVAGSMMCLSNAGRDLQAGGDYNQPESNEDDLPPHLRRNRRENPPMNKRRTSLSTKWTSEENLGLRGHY

[14] = Luminescence Cell-Based Dose Confirmation HTS to Identify Inhibitors of Platelet Dense Granule Release. [Related pubchem assays: 1663 (Primary HTS), 1678 (Summary of Project)]; format: functional
[15] = target: Luciferin 4-monooxygenase (Photinus pyralis, UniProt P08659); assay: inhibition of purified Photinus pyralis luciferase – biochemical, luminescence, dose response (AID 1891)
Cytochrome P450 2D6 = Cytochrome P450 2D6 (Homo sapiens, UniProt P10635);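 further: CYP2D6 member of a cytochrome P450 panel assay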
Cytochrome P450 2D6, sequence (P10635 whole entry): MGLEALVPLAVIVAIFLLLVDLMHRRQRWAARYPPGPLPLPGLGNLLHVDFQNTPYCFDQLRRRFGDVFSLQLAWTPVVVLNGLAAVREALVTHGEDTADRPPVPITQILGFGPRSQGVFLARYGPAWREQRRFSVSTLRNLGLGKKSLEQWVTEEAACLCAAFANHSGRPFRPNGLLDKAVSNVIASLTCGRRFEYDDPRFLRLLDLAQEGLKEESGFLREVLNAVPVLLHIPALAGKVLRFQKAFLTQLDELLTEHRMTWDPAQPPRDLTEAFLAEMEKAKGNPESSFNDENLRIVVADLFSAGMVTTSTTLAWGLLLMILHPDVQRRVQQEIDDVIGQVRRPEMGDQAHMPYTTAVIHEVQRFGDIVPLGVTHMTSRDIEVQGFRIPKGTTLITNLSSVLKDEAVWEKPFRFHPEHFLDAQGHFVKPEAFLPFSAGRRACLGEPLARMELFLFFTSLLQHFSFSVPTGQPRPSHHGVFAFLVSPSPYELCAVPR

Luciferin 4-monooxygenase, sequence (P08659 whole entry): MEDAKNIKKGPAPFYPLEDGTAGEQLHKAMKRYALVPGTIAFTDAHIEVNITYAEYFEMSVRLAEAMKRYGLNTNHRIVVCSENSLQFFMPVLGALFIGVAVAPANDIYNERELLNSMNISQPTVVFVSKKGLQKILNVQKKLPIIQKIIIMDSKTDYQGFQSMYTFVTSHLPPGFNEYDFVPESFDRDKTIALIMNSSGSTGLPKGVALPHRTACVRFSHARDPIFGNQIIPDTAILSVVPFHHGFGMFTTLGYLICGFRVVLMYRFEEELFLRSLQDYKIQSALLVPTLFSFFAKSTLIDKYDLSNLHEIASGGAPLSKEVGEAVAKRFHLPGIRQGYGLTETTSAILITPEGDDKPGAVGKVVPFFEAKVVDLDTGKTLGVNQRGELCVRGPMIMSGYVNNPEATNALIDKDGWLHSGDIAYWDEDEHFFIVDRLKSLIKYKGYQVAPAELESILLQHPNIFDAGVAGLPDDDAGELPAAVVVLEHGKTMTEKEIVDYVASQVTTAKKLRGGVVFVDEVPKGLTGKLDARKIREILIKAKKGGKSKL
Large T antigen, sequence (P03070 whole entry): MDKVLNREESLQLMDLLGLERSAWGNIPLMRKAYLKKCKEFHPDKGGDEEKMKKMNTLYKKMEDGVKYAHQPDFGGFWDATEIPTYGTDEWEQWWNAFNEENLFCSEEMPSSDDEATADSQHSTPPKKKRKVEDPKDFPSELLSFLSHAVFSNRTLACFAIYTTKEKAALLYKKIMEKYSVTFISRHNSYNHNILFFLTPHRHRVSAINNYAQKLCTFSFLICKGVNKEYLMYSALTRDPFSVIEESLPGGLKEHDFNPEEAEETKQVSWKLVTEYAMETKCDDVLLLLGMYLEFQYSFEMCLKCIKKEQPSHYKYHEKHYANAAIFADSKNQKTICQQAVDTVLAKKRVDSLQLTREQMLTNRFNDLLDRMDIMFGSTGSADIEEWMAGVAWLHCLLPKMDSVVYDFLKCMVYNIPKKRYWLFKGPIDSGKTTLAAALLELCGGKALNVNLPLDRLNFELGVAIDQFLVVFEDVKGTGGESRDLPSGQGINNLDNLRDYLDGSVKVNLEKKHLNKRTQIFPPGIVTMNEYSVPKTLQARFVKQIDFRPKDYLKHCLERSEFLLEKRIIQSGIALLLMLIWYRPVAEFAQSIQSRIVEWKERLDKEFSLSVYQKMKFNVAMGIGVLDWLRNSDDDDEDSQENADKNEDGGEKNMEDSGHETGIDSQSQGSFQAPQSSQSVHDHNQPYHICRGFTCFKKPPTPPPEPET

N=C(NOC(=O)CCCCCN1C(=O)c2ccccc2C1=O)c1ccccc1
IC50 [1]: 48.1 µM (not active)

O=C(OCCCN1CCOCC1)c1ccc(O)c(O)c1
EC50 [2]: 34.7 µM (active) | IC50 (Large T antigen): 11.7 µM (active)

CC(C)(C)c1ccc(OCCOc2ccc(C(C)(C)C)cc2NC=O)c(NC=O)c1
IC50 [1]: 16.6 µM (not active) | EC50 [3]: 2.47 µM (active) | EC50 [4]: > 60 µM (not active)

CCc1ccc(C(=O)Nn2c(C)nc3ccccc3c2=O)cc1
IC50 [5]: > 20 µM (inactive)

COc1ccccc1-c1cc(C(=O)N/N=C/C=C/c2ccccc2[N+](=O)[O-])c2ccccc2n1
IC50 (H9c2): > 79 µM (inactive)

COc1cc(C(=O)Nc2nc3ccc(S(C)(=O)=O)cc3s2)cc(OC)c1C
IC50 [5]: > 20 µM (inactive)

CCOC(=O)COc1cc(N)c(Cl)cc1Cl
IC50 (cells): 7.65 µM (active)

C[C@H](NS(=O)(=O)c1ccc(Cl)cc1)C(=O)OCC(=O)NC(=O)Nc1ccc2c(c1)OCCO2
IC50 [1]: 14.2 µM (not active)

Brc1ccc(-c2csc(NC3=NCCCCC3)n2)cc1
EC50 [6]: 18.9 µM (active) | EC50 (H4): 36.6 µM (active)

COC(=O)c1c(C)[nH]c(O)c1/C=N/c1ccc(Oc2ccccc2)cc1
EC50 [7]: > 53 µM (inactive) | IC50 (H9c2): > 79 µM (inactive)

O=C(N[C@@H](Cc1ccccc1)C(=O)OCc1ccccc1)c1[nH]cnc1C(=O)N1CCN(c2ccccc2)CC1
IC50 [1]: 6.6 µM (not active)

Nc1ccc(-c2nnc(O)c3ccccc23)cc1N
IC50 (H9c2): > 79 µM (inactive)

Cc1cc(O)nc2ccc(S(=O)(=O)Nc3ccc(O)cc3)cc12
IC50 (Large T antigen): 7.49 µM (active)

CCCc1cc(O)nc(Nc2ccc(O)cc2)n1
IC50 (Large T antigen): 6.91 µM (active)

COc1ccc(NC(=O)c2c(Cl)n(C)c3ccccc23)cc1
EC50 (BJ [8]): > 150 µM (inconclusive) | EC50 (BJ [9]): 23 µM (active) | EC50 [10]: 25.3 µM (active) | EC50 (BJ [11]): 22.7 µM (active)

O=C1NC(=O)[C@@H]2C3c4ccccc4C=CN3[C@H](C(=O)c3cccs3)[C@H]12 (some centres undefined)
EC50 [12]: 24.6 µM (inconclusive) | EC50 [13]: 16.4 µM (active)

O=C(CSc1nc(-c2ccccc2)cs1)NCc1ccco1
EC50 [14]: > 112 µM (not active) | EC50 [15]: > 112 µM (not active)

C[C@@H]1ON(C)[C@H]2C[C@H]3c4[nH]c5ccc(-c6ccc7c(c6)OCO7)cc5c4CCN3C[C@@H]12
IC50 (H9c2): > 79 µM (inactive)

CCOc1ccc(Cl)cc1S(=O)(=O)N1CCN(c2ccc(F)cc2)CC1
IC50 [1]: 7.1 µM (not active)

COc1ccc(/C=N/NC(=O)c2ccc(Br)cc2)cc1CN1CCOCC1
IC50 (Large T antigen): 15.8 µM (active)

COC(=O)c1sccc1NC(=O)Nc1ccc(F)cc1
EC50 [14]: 1.67 µM (active) | EC50 [15]: 0.535 µM (active)

O=C(CN1CCN(c2ccc(O)cc2)CC1)Nc1ccc2c(c1)OCCO2
IC50 (Large T antigen): 8.22 µM (active)

COc1ccccc1NS(=O)(=O)c1ccc2oc(SCC(=O)N3CCNC3=O)nc2c1
IC50 (H9c2): 15.8 µM (active)

Nc1ncccc1OCc1ccc(Br)cc1
EC50 [6]: 1.05 µM (active) | EC50 (H4): > 120 µM (not active)

COc1ccc(NC(=O)CCS(=O)(=O)c2ccc3nc(C)sc3c2)cc1OC
EC50 [14]: > 112 µM (not active) | EC50 [15]: > 112 µM (not active)

CCOC(=O)C1Nc2ccc(C(F)(F)F)cc2C2C=CCC12 (centres undefined)
EC50 [12]: > 300 µM (not active) | EC50 [13]: > 300 µM (not active)

CN(C(=O)CCc1nc(O)c2ccccc2n1)C1CCS(=O)(=O)C1 (centres undefined)
IC50 (H9c2): > 79 µM (inactive)

O=S(=O)(c1ccccc1)N1CCN(c2nc(-c3cccnc3)nc3ccccc23)CC1
IC50 (H9c2): 10.2 µM (active)

Cc1c(-c2ccc(Br)cc2)nc2ccccn12
IC50 (cells): 49.4 µM (active)

CC(=O)c1ccc(NC(=O)CSc2nnc(-c3ccncc3)o2)cc1
EC50 [12]: > 300 µM (not active) | EC50 [13]: > 300 µM (not active)

OC(CNCc1cccc(Br)c1)c1ccccc1 (centres undefined)
EC50 [14]: 20.7 µM (active) | EC50 [15]: > 112 µM (not active)

CCOC(=O)C1CCN(S(=O)(=O)c2cc(Br)cc3c2N(C(=O)C2CC2)CC3)CC1
IC50 [1]: 11.5 µM (not active)

COc1ccccc1OCCNC(=O)c1cc([N+](=O)[O-])cc([N+](=O)[O-])c1
IC50 (cells): 47.6 µM (active) | EC50 [3]: 0.107 µM (active) | EC50 [4]: > 60 µM (not active)

COc1cc2c(cc1OC)C[N+](C)(C)CC2
IC50 (Large T antigen): 55.1 µM (active)

O=C(Nc1ccc(N2CCCC2)cc1)c1cc(Cl)ccc1Cl
EC50 (BJ [8]): 146 µM (active) | EC50 (BJ [9]): > 150 µM (not active) | EC50 [10]: 15.8 µM (active) | EC50 (BJ [11]): 13.6 µM (active)

O/N=C(\c1ccc(Cl)cc1)c1cc2ccccc2o1
IC50 [1]: 2.06 µM (not active)

COc1ccc(C(C(=O)NCc2ccccc2)N(Cc2cccs2)C(=O)c2cnccn2)cc1 (centres undefined)
AC50 (Cytochrome P450 2D6): 31.6 µM (inconclusive) | IC50 (H9c2): > 79 µM (inactive)
